According to PMC10786919, “Design-rules for stapled peptides with in vivo activity and their application to Mdm2/X antagonists” (Nature Communications, 2024):
≈ marks a conversion by molar mass, not a printed value. Read-outs that look alike come from different tables or passages of the source. Positions of bridges follow the written chain, without caps; N, C: chain ends. Non-standard residues stand in square brackets, D forms with d. Residues, ends and D or L forms follow the SMILES beside them. Lys(N3) = [N-]=[N+]=NCCCC[C@H](N)C(=O)O; R8 = C=CCCCCCC[C@@](C)(N)C(=O)O; Cba = N[C@@H](CC1CCC1)C(=O)O; S5 = C=CCCC[C@](C)(N)C(=O)O; βAla = NCCC(=O)O

What was measured:
[1] = Experimental LogD (partition coefficient); settings: for logD: not stated, Partition Coeff LogD
in vitro = settings: Nanoclick permeability assay EC50
Outline: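 Azido-peptide permeability was read as loss of NanoBRET signal (donor 450 nm, acceptor 610 nm) after adding NanoBret618-azide at 10 μM final.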

[2] = Lactate dehydrogenase (LDH) release assay; format: cell-based
Outline: (§1)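 Read-out was lactate dehydrogenase release, reflecting loss of membrane integrity, in reporter-engineered HCT116 cells (p53-responsive β-lactamase) seeded at 8000 cells per well. Final DMSO was 0.5%, and reported values are geometric means from three or more biological repeats.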

[3] = tested on: CellSensor p53RE-bla HCT-116 Cell Line; settings: 72 h
Outline: (§2)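 Compound dilution series (10 points, 3-fold, 10 mM top stock in DMSO) tested on overnight-plated Ca Ski cells in RPMI1640/10% FBS and on blasticidin-selected p53RE-bla HCT-116 cells in McCoy's 5A; read-out was CellTiter-Glo 2.0 luminescence after room-temperature equilibration.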

Ca Ski cell line = settings: 72 h
Outline: as §2

[4] = Solubility assay (kinetic solubility, PBS pH 7); format: physicochemical; settings: for solubility kinetic: pH 7, aqueous buffer, kinetic from dmso stock, read-out: Solubility
Outline: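 Values derive from peak-area ratios of sample versus a 100 µM standard, scaled by that standard's concentration.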

physchem [5] = assay: physchem
HCT116 cells = assay: Lactate dehydrogenase (LDH) release assay; format: cell-based
Outline: as §1

physchem [6] = assay: physchem; remark: listed apart in the source

SMILES | logD [1] | cell entry EC50 (in vitro) | EC50 ([2]; LDH: Cytotoxicity assay: EC50) | EC50 [3] | EC50 (Ca Ski cell line) | solubility kinetic ([4]; pH 7, PBS) | EPSA (physchem [5]) | LDH: Cytotoxicity assay: % Effect (HCT116 cells) | Partition Coeff LogD [1] | Partition Coeff LogD ([1]; experimental) | EPSA (physchem [6]) | EC50 ([2]; LDH: Cytotoxicity assay EC50) | Solubility [4] | Solubility ([4]; pH 7, PBS) | EC50 ([2]; LDH Cytotoxicity assay EC50)
CC(=O)N[C@@H](CCCCN=[N+]=[N-])C(=O)NCCC(=O)N[C@H](C(=O)N[C@H](C(=O)N[C@@H](Cc1ccccc1)C(=O)N[C@]1(C)CCCCCCC=CCCC[C@@](C)(C(=O)N[C@@H](CO)C(=O)N[C@@H](C)C(=O)N[C@@H](C)C(N)=O)NC(=O)[C@H](CC2CCC2)NC(=O)[C@H](CCC(N)=O)NC(=O)[C@H](C(C)C)NC(=O)[C@H](Cc2c[nH]c3ccccc23)NC(=O)[C@H](Cc2ccc(O)cc2)NC(=O)[C@H](C(C)C)NC1=O)[C@@H](C)O)C(C)C [MP-490] (Ac-[Lys(N3)][βAla]VTF[R8]VYWVQ[Cba][S5]SAA-NH2; staple 6-13) | 4 | 1.37 µM | > 50.6 µM | 0.819 µM | > 49.8 µM | 3 µM (≈ 5.86 µg/mL) | 194 A^2 | – | – | – | – | – | – | – | –
CC[C@H](C)[C@H](NC(=O)CCNC(=O)[C@H](CCCCN=[N+]=[N-])NC(C)=O)C(=O)N[C@H](C(=O)N[C@@H](Cc1ccccc1)C(=O)N[C@]1(C)CCCCCCC=CCCC[C@@](C)(C(=O)N[C@@H](CO)C(=O)N[C@@H](C)C(=O)N[C@@H](C)C(N)=O)NC(=O)[C@H](CC2CCC2)NC(=O)[C@H](CCC(N)=O)NC(=O)[C@H]([C@@H](C)CC)NC(=O)[C@H](Cc2c[nH]c3ccccc23)NC(=O)[C@H](Cc2ccc(O)cc2)NC(=O)[C@H]([C@@H](C)CC)NC1=O)[C@@H](C)O [MP-491] (Ac-[Lys(N3)][βAla]ITF[R8]IYWIQ[Cba][S5]SAA-NH2; staple 6-13) | 4.61 | 0.237 µM | > 50.6 µM | 1.32 µM | > 49.8 µM | – | 196 A^2 | -1.101% | – | – | – | – | – | – | –
CC(=O)N[C@@H](CCCCN=[N+]=[N-])C(=O)NCCC(=O)N[C@@H](Cc1ccccc1)C(=O)N[C@H](C(=O)N[C@@H](Cc1ccccc1)C(=O)N[C@]1(C)CCCCCCC=CCCC[C@@](C)(C(=O)N[C@@H](CO)C(=O)N[C@@H](C)C(=O)N[C@@H](C)C(N)=O)NC(=O)[C@H](CC2CCC2)NC(=O)[C@H](CCC(N)=O)NC(=O)[C@H](Cc2ccccc2)NC(=O)[C@H](Cc2c[nH]c3ccccc23)NC(=O)[C@H](Cc2ccc(O)cc2)NC(=O)[C@H](Cc2ccccc2)NC1=O)[C@@H](C)O [MP-492] (Ac-[Lys(N3)][βAla]FTF[R8]FYWFQ[Cba][S5]SAA-NH2; staple 6-13) | 4.21 | 0.16 µM | > 50.6 µM | 2.53 µM | > 49.8 µM | 3 µM (≈ 6.3 µg/mL) | 211 A^2 | – | – | – | – | – | – | – | –
CC(=O)N[C@@H](CCCCN=[N+]=[N-])C(=O)NCCC(=O)N[C@@H](CC(N)=O)C(=O)N[C@H](C(=O)N[C@@H](Cc1ccccc1)C(=O)N[C@]1(C)CCCCCCC=CCCC[C@@](C)(C(=O)N[C@@H](CO)C(=O)N[C@@H](C)C(=O)N[C@@H](C)C(N)=O)NC(=O)[C@H](CC2CCC2)NC(=O)[C@H](CCC(N)=O)NC(=O)[C@H](CC(N)=O)NC(=O)[C@H](Cc2c[nH]c3ccccc23)NC(=O)[C@H](Cc2ccc(O)cc2)NC(=O)[C@H](CC(N)=O)NC1=O)[C@@H](C)O [MP-497] | 2.49 | 0.271 µM | > 50.6 µM | 7.81 µM | > 49.8 µM | 5 µM (≈ 10 µg/mL) | 202 A^2 | 3.16% | – | – | – | – | – | – | –
CC(=O)N[C@@H](CCCCN=[N+]=[N-])C(=O)NCCC(=O)N[C@@H](Cc1ccc(O)cc1)C(=O)N[C@H](C(=O)N[C@@H](Cc1ccccc1)C(=O)N[C@]1(C)CCCCCCC=CCCC[C@@](C)(C(=O)N[C@@H](CO)C(=O)N[C@@H](C)C(=O)N[C@@H](C)C(N)=O)NC(=O)[C@H](CC2CCC2)NC(=O)[C@H](CCC(N)=O)NC(=O)[C@H](Cc2ccc(O)cc2)NC(=O)[C@H](Cc2c[nH]c3ccccc23)NC(=O)[C@H](Cc2ccc(O)cc2)NC(=O)[C@H](Cc2ccc(O)cc2)NC1=O)[C@@H](C)O [MP-694] (Ac-[Lys(N3)][βAla]YTF[R8]YYWYQ[Cba][S5]SAA-NH2; staple 6-13) | 3.22 | 0.453 µM | > 50.6 µM | 3.03 µM | > 49.8 µM | 9 µM (≈ 19.3 µg/mL) | 227 A^2 | – | – | – | – | – | – | – | –
CC(=O)N[C@@H](CCCCN=[N+]=[N-])C(=O)NCCC(=O)N[C@@H](CO)C(=O)N[C@H](C(=O)N[C@@H](Cc1ccccc1)C(=O)N[C@]1(C)CCCCCCC=CCCC[C@@](C)(C(=O)N[C@@H](CO)C(=O)N[C@@H](C)C(=O)N[C@@H](C)C(N)=O)NC(=O)[C@H](CC2CCC2)NC(=O)[C@H](CCC(N)=O)NC(=O)[C@H](CO)NC(=O)[C@H](Cc2c[nH]c3ccccc23)NC(=O)[C@H](Cc2ccc(O)cc2)NC(=O)[C@H](CO)NC1=O)[C@@H](C)O [MP-5493] (Ac-[Lys(N3)][βAla]STF[R8]SYWSQ[Cba][S5]SAA-NH2; staple 6-13) | 2.69 | 0.0294 µM | > 50.6 µM | 3.61 µM | > 49.8 µM | – | 204 A^2 | 6.777% | – | – | – | – | – | – | –
CC(=O)N[C@@H](CCCCN=[N+]=[N-])C(=O)NCCC(=O)N[C@H](C(=O)N[C@H](C(=O)N[C@@H](Cc1ccccc1)C(=O)N[C@]1(C)CCCCCCC=CCCC[C@@](C)(C(=O)N[C@@H](CO)C(=O)N[C@@H](C)C(=O)N[C@@H](C)C(N)=O)NC(=O)[C@H](CC2CCC2)NC(=O)[C@H](CCC(N)=O)NC(=O)[C@H]([C@@H](C)O)NC(=O)[C@H](Cc2c[nH]c3ccccc23)NC(=O)[C@H](Cc2ccc(O)cc2)NC(=O)[C@H]([C@@H](C)O)NC1=O)[C@@H](C)O)[C@@H](C)O [MP-5494] (Ac-[Lys(N3)][βAla]TTF[R8]TYWTQ[Cba][S5]SAA-NH2; staple 6-13) | 2.94 | 0.457 µM | > 50.6 µM | 0.679 µM | > 49.8 µM | – | 199 A^2 | 2.763% | – | – | – | – | – | – | –
CC(=O)N[C@@H](CCCCN=[N+]=[N-])C(=O)NCCC(=O)N[C@@H](CC(C)C)C(=O)N[C@H](C(=O)N[C@@H](Cc1ccccc1)C(=O)N[C@]1(C)CCCCCCC=CCCC[C@@](C)(C(=O)N[C@@H](C)C(=O)N[C@@H](C)C(=O)N[C@@H](C)C(N)=O)NC(=O)[C@H](CC2CCC2)NC(=O)[C@H](CCC(N)=O)NC(=O)[C@H](C)NC(=O)[C@H](Cc2c[nH]c3ccccc23)NC(=O)[C@H](Cc2ccc(O)cc2)NC(=O)[C@H](C)NC1=O)[C@@H](C)O [MP-8965] (Ac-[Lys(N3)][βAla]LTF[R8]AYWAQ[Cba][S5]AAA-NH2; staple 6-13) | – | 0.112 µM | – | 0.855 µM | > 49.8 µM | – | – | – | Poorly Behaved | P.B. | 205 A^2 | > 50 µM | P.B. | Poorly Behaved | –
CC(=O)N[C@@H](CCCCN=[N+]=[N-])C(=O)N[C@@H](CCCCN)C(=O)N[C@@H](CCCCN)C(=O)NCCC(=O)N[C@@H](C)C(=O)N[C@@H](C)C(=O)N[C@@H](Cc1ccccc1)C(=O)N[C@]1(C)CCCCCCC=CCCC[C@@](C)(C(=O)N[C@@H](C)C(=O)N[C@@H](C)C(=O)N[C@@H](C)C(N)=O)NC(=O)[C@H](CC2CCC2)NC(=O)[C@H](C)NC(=O)[C@H](C)NC(=O)[C@H](Cc2c[nH]c3ccccc23)NC(=O)[C@H](Cc2ccc(O)cc2)NC(=O)[C@H](C)NC1=O [MP-8967] (Ac-[Lys(N3)]KK[βAla]AAF[R8]AYWAA[Cba][S5]AAA-NH2; staple 8-15) | 2.75 | 0.575 µM | – | 12.1 µM | 13.5 µM | – | – | – | – | – | 223 A^2 | 16.8 µM | P.B. | Poorly Behaved | 16.8 µM
